Test results published in US20140179664A1, “Heterocyclyl Pyrimidine Analogues As JAK Inhibitors” (Cellzome Limited, priority 2011, published 2014).

Assays:
Format in all cases: binding
JAK1 = target: T1, JAK1 (Homo sapiens, UniProt P23458); test: Kinobeads assay, JAK1; settings: mixed Molt4/Ramos lysate, read-out: Inhibition values (IC50) JAK1
T1 construct: endogenous in cells; host or cells: Molt4 (ATCC CRL-1582) and Ramos (ATCC CRL-1596), mixed lysate 1:2
Summary of the method: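 Mixed Molt4/Ramos cell lysate (1:2) was incubated 3 hours in the cold with kinobeads and a 9-step 1:3 compound dilution series. The no-compound control carried 2% DMSO. Bead-bound JAK1 was eluted, detected by antibody dot blot with infrared fluorescence, and IC50 derived from dose-response curves.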

JAK2 = target: T2, JAK2 (Homo sapiens, UniProt O60674); test: Kinobeads assay, JAK2; settings: mixed Molt4/Ramos lysate, read-out: Inhibition values (IC50) JAK2
T2 construct: endogenous in cells; host or cells: Molt4 (ATCC CRL-1582) and Ramos (ATCC CRL-1596), mixed lysate 1:2
Summary of the method: (§1)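 Mixed Molt4/Ramos lysate (1:2, 10 mg/mL protein) was incubated 3 h in the cold with the immobilized aminopyrido-pyrimidine affinity matrix and compound, 9-step 1:3 dilutions. Bead-bound kinases were eluted and quantified by antibody dot blot with infrared detection. IC50s are from dose-response curves.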

TYK2 = target: T3, TYK2 (Homo sapiens, UniProt P29597); test: Kinobeads assay, TYK2; settings: mixed Molt4/Ramos lysate, read-out: Inhibition values (IC50) TYK2
T3 construct: endogenous in cells; host or cells: Molt4 (ATCC CRL-1582) and Ramos (ATCC CRL-1596), mixed lysate 1:2
Summary of the method: as §1

T1 sequence (P23458 whole entry): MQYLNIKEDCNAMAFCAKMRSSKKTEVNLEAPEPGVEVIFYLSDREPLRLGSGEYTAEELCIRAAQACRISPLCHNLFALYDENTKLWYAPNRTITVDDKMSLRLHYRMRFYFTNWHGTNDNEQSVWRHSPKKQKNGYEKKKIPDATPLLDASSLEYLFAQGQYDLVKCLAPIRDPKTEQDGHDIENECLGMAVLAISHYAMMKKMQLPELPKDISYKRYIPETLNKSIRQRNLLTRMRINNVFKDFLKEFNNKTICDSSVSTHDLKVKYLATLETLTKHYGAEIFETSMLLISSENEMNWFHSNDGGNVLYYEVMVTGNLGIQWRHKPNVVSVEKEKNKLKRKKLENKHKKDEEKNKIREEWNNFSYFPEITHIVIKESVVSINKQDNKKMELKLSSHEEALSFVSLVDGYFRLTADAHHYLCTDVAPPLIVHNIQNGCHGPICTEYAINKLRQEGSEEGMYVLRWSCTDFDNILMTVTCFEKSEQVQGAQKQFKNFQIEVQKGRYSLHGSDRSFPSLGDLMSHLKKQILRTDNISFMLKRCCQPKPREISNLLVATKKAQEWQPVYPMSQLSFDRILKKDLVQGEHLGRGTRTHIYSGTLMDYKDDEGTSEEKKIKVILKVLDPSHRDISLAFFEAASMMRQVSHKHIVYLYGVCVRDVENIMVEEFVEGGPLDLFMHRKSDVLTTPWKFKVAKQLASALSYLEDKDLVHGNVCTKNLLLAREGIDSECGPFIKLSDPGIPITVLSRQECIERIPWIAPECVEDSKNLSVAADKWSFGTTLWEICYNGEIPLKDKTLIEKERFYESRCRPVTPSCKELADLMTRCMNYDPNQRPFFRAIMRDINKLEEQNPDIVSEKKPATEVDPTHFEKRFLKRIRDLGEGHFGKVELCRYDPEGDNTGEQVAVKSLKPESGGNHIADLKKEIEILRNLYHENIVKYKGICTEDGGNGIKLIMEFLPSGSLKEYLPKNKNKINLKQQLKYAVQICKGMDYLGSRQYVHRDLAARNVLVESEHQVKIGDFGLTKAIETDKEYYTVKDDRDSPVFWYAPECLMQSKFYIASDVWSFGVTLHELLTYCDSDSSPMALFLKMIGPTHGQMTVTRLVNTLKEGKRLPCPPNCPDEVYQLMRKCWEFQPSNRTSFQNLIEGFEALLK
T2 sequence (O60674 whole entry): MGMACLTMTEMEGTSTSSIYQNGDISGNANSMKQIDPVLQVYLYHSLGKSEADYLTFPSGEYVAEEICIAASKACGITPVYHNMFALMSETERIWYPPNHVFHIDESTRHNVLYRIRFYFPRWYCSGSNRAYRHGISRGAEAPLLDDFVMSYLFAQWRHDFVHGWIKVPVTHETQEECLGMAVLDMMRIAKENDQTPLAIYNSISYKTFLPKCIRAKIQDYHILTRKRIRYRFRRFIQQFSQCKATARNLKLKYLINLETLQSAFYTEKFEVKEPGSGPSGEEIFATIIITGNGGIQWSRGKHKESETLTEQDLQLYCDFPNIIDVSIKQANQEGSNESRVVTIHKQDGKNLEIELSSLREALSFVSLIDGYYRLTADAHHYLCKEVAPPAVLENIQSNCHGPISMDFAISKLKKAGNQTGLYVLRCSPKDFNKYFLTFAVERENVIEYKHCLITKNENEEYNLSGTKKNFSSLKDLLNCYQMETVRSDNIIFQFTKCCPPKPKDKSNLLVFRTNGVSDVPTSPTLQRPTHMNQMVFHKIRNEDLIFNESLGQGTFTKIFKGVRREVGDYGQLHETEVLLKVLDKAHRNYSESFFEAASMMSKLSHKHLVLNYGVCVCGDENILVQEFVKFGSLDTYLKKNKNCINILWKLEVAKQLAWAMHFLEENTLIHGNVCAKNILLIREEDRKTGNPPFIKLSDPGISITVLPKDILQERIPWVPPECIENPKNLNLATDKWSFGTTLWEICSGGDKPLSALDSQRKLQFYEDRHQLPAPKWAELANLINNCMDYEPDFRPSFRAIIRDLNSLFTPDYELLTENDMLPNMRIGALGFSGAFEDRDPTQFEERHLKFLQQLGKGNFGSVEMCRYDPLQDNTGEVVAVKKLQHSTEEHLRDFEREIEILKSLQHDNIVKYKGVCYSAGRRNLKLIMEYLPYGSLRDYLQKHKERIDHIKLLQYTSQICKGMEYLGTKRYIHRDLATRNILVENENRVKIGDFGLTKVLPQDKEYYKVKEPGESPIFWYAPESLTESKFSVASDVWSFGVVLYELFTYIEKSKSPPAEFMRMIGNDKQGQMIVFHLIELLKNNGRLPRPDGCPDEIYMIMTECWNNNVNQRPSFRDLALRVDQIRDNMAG
T3 sequence (P29597 whole entry): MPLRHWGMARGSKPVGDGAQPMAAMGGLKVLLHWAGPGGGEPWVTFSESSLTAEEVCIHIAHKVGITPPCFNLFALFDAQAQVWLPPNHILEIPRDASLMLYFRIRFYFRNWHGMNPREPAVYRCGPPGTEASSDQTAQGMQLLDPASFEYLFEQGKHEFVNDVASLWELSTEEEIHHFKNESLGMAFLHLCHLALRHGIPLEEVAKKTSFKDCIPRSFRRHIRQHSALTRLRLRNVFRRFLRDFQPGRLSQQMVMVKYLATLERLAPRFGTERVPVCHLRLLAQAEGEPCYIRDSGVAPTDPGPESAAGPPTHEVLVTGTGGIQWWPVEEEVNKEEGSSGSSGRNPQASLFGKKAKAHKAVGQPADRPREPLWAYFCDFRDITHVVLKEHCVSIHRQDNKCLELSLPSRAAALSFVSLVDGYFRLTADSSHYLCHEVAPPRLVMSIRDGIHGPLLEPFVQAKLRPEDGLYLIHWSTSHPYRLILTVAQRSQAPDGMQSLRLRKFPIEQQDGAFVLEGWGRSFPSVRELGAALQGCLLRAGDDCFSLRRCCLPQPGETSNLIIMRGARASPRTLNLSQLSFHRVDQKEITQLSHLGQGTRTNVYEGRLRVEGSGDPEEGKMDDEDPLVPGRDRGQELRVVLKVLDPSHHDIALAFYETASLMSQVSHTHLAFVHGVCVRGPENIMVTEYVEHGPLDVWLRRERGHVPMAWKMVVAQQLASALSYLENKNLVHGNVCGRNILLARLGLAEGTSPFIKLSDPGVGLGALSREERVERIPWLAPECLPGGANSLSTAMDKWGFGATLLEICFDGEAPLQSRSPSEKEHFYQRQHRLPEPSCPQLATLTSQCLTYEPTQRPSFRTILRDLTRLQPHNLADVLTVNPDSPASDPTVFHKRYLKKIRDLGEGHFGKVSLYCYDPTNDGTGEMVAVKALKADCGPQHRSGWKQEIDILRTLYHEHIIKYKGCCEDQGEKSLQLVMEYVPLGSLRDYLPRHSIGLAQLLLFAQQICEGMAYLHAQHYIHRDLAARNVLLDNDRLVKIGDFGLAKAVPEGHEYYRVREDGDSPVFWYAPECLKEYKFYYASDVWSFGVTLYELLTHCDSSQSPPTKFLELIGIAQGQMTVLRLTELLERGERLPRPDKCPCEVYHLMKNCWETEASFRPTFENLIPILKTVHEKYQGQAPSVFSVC

IC50 (JAK1) [µM] | IC50 (JAK2) [µM] | IC50 (TYK2) [µM] | SMILES
1 to 10 | ≥ 10 | 1 to 10 | Cn1cc(Nc2ncc(Cl)c(NC(CO)c3ccccc3)n2)cn1 (stereo not drawn) [Compound 1]
> 10 | ≥ 10 | ≥ 10 | Cn1ccc(Nc2ncc(Cl)c(N[C@H](CO)c3ccccc3)n2)n1 [Compound 11]
1 to 10 | ≥ 10 | 1 to 10 | Cc1cnc(Nc2cnn(CCO)c2)nc1NC(CO)c1ccccc1 (stereo not drawn) [Compound 12]
> 10 | ≥ 10 | ≥ 10 | O=C(O)C(Nc1nc(Nc2cnn(CCO)c2)ncc1Cl)c1ccccc1 (stereo not drawn) [Compound 17]
0.1 to 1 | 1 to 10 | 1 to 10 | OCCn1cc(Nc2ncc(Cl)c(NC(CO)Cc3ccccc3)n2)cn1 (stereo not drawn) [Compound 19]
1 to 10 | ≥ 10 | 1 to 10 | O=C(O)Cn1cc(Nc2ncc(Cl)c(N[C@H](CO)c3ccccc3)n2)cn1 [Compound 24]
1 to 10 | 1 to 10 | 1 to 10 | CNC(=O)Cn1cc(Nc2ncc(Cl)c(NC(CO)c3c(F)cccc3F)n2)cn1 (stereo not drawn) [Compound 31]
1 to 10 | 1 to 10 | 1 to 10 | CNC(=O)Cn1cc(Nc2ncc(Cl)c(NC(CO)c3cccc(F)c3)n2)cn1 (stereo not drawn) [Compound 32]
1 to 10 | 1 to 10 | 1 to 10 | CNC(=O)Cn1cc(Nc2ncc(Cl)c(NC(CO)c3ccccc3F)n2)cn1 (stereo not drawn) [Compound 33]
0.1 to 1 | 1 to 10 | 0.1 to 1 | OCCn1cc(Nc2ncc(Cl)c(NC(CO)c3ccccc3F)n2)cn1 (stereo not drawn) [Compound 36]
1 to 10 | 1 to 10 | 1 to 10 | Cn1cc(Nc2ncc(Cl)c(NC(CO)c3ccccc3F)n2)cn1 (stereo not drawn) [Compound 37]
0.1 to 1 | 1 to 10 | 1 to 10 | CC(O)Cn1cc(Nc2ncc(Cl)c(NC(CO)c3cccc(F)c3)n2)cn1 (stereo not drawn) [Compound 38]
0.1 to 1 | 0.1 to 1 | 0.1 to 1 | OCCn1cc(Nc2ncc(Cl)c(NC(CO)c3cccc(F)c3)n2)cn1 (stereo not drawn) [Compound 39]
1 to 10 | 1 to 10 | 1 to 10 | Cn1cc(Nc2ncc(Cl)c(NC(CO)c3cccc(F)c3)n2)cn1 (stereo not drawn) [Compound 40]
> 10 | ≥ 10 | ≥ 10 | OCCn1ccc(Nc2ncc(Cl)c(NC(CO)c3cccc(F)c3)n2)n1 (stereo not drawn) [Compound 41]
1 to 10 | 1 to 10 | 0.1 to 1 | CC(O)Cn1cc(Nc2ncc(Cl)c(NC(CO)c3c(F)cccc3F)n2)cn1 (stereo not drawn) [Compound 42]
0.1 to 1 | 1 to 10 | 0.1 to 1 | OCCn1cc(Nc2ncc(Cl)c(NC(CO)c3c(F)cccc3F)n2)cn1 (stereo not drawn) [Compound 43]
1 to 10 | 1 to 10 | 1 to 10 | Cn1cc(Nc2ncc(Cl)c(NC(CO)c3c(F)cccc3F)n2)cn1 (stereo not drawn) [Compound 44]
> 10 | ≥ 10 | 1 to 10 | OCCn1ccc(Nc2ncc(Cl)c(NC(CO)c3c(F)cccc3F)n2)n1 (stereo not drawn) [Compound 45]
0.1 to 1 | 1 to 10 | 1 to 10 | O=C(NCCO)[C@@H](Nc1nc(Nc2cnn(CCO)c2)ncc1Cl)c1ccccc1 [Compound 47]
> 10 | ≥ 10 | ≥ 10 | OCCn1ccc(Nc2ncc(Cl)c(NC(CO)c3ccccc3F)n2)n1 (stereo not drawn) [Compound 50]

More lines, now with the values behind:

SMILES | IC50 (JAK1) [µM] | IC50 (JAK2) [µM] | IC50 (TYK2) [µM]
Cn1cc(Nc2ncc(F)c(NC(CO)c3ccccc3)n2)cn1 (stereo not drawn) [Compound 2] | > 10 | ≥ 10 | 1 to 10
O=C(c1cc(Nc2ncc(Cl)c(N[C@H](CO)c3ccccc3)n2)c[nH]1)N1CCOCC1 [Compound 13] | 1 to 10 | 0.1 to 1 | 0.1 to 1
Cn1cc(Nc2ncc(Cl)c(NC(CO)Cc3ccccc3)n2)cn1 (stereo not drawn) [Compound 14] | 1 to 10 | 1 to 10 | 1 to 10
COC(=O)C(Nc1nc(Nc2cnn(CCO)c2)ncc1Cl)c1ccccc1 (stereo not drawn) [Compound 15] | 1 to 10 | ≥ 10 | 1 to 10
COC(=O)C(Nc1nc(Nc2cnn(C)c2)ncc1Cl)c1ccccc1 (stereo not drawn) [Compound 16] | 1 to 10 | ≥ 10 | 1 to 10
Cn1cc(Nc2ncc(Cl)c(NC(C(=O)O)c3ccccc3)n2)cn1 (stereo not drawn) [Compound 18] | 1 to 10 | 1 to 10 | 1 to 10
CNC(=O)[C@@H](Nc1nc(Nc2cnn(C)c2)ncc1Cl)c1ccccc1 [Compound 20] | 1 to 10 | ≥ 10 | 1 to 10
CC(C)OC(=O)Cn1cc(Nc2ncc(Cl)c(N[C@H](CO)c3ccccc3)n2)cn1 [Compound 21] | 1 to 10 | 1 to 10 | 0.1 to 1
CCOC(=O)Cn1cc(Nc2ncc(Cl)c(N[C@H](CO)c3ccccc3)n2)cn1 [Compound 22] | 0.1 to 1 | 1 to 10 | 0.1 to 1
CNC(=O)Cn1cc(Nc2ncc(Cl)c(N[C@H](CO)c3ccccc3)n2)cn1 [Compound 23, (S)-2-(4-((5-chloro-4-((2-hydroxy-1-phenylethyl)amino)pyrimidin-2-yl)amino)-1H-pyrazol-1-yl)-N-methylacetamide] | 0.1 to 1 | 1 to 10 | 1 to 10
CN(C)C(=O)[C@@H](Nc1nc(Nc2cnn(C)c2)ncc1Cl)c1ccccc1 [Compound 25] | 1 to 10 | ≥ 10 | ≥ 10
CN(C)C(=O)[C@@H](Nc1nc(Nc2cnn(CCO)c2)ncc1Cl)c1ccccc1 [Compound 26] | 1 to 10 | 1 to 10 | 1 to 10
CCNC(=O)[C@@H](Nc1nc(Nc2cnn(CCO)c2)ncc1Cl)c1ccccc1 [Compound 27] | 1 to 10 | ≥ 10 | 1 to 10
CCNC(=O)[C@@H](Nc1nc(Nc2cnn(C)c2)ncc1Cl)c1ccccc1 [Compound 28] | 1 to 10 | ≥ 10 | 1 to 10
COCCNC(=O)[C@@H](Nc1nc(Nc2cnn(C)c2)ncc1Cl)c1ccccc1 [Compound 29] | 1 to 10 | 1 to 10 | 1 to 10
CN(C)C(=O)Cn1cc(Nc2ncc(Cl)c(N[C@H](CO)c3ccccc3)n2)cn1 [Compound 30] | 0.1 to 1 | 1 to 10 | 0.1 to 1
Cn1cc(Nc2ncc(Cl)c(N[C@H](C(=O)N3CCCC3)c3ccccc3)n2)cn1 [Compound 34] | 1 to 10 | 1 to 10 | ≥ 10
O=C([C@@H](Nc1nc(Nc2cnn(CCO)c2)ncc1Cl)c1ccccc1)N1CCCC1 [Compound 35] | 1 to 10 | 1 to 10 | 1 to 10
Cn1cc(Nc2ncc(Cl)c(N[C@H](C(=O)NCCO)c3ccccc3)n2)cn1 [Compound 46] | 1 to 10 | 1 to 10 | 1 to 10
COCCNC(=O)[C@@H](Nc1nc(Nc2cnn(CCO)c2)ncc1Cl)c1ccccc1 [Compound 48] | 0.1 to 1 | 1 to 10 | 1 to 10
Cn1cc(Nc2ncc(Cl)c(N[C@H](C(=O)N3CCCCC3)c3ccccc3)n2)cn1 [Compound 49] | 1 to 10 | ≥ 10 | ≥ 10
O=C([C@@H](Nc1nc(Nc2cnn(CCO)c2)ncc1Cl)c1ccccc1)N1CCCCC1 [Compound 51] | > 10 | ≥ 10 | ≥ 10
